{"source": "patent US12612395B2", "about": "“Rocaglate derivatives and uses thereof” (TRUSTEES OF BOSTON UNIVERSITY, priority 2023, dated 2026)", "key": {"GBM0308 stem cells": {"tested_on": "GBM0308 stem cells", "assay": "RNA sequencing of treated GBM CSCs", "type": "cell-based, human", "details": "0.1 μM and 1 μM, 12 h and 24 h", "source_text": "To understand the transcriptomic changes underlying (−)-20 effects on GBM CSCs, the inventors performed RNA sequencing experiments in these cells. […] Furthermore, upon compound treatment, the inventors observed the downregulation of several hallmark gene sets associated with critical cellular processes, including apoptosis, glycolysis, MTORC1 signaling, NOTCH signaling, epithelial-mesenchymal transition (EMT), and angiogenesis (FIGS. 5D and 18A). […] This observation emphasizes the complexity of cell death mechanisms and the potential origins of selectivity of (−)-20 against CSCs. […] (FIG. 5E).\nRNA Sequencing and Analysis: GBM0308 cells cultured in NBE medium were treated with compound (−)-20 at concentrations of 0.1 μM, 1 μM and DMSO. At 12 h and 24 h timepoints, total RNA was extracted using RNeasy mini kit (Qiagen) as per the manufacturer's instruction. Preparation of the RNA library and transcriptome sequencing were conducted by Novogene. […]"}, "BT145 CSCs": {"tested_on": "BT145 CSCs", "assay": "Dose-response killing of CSCs in BT145 glioblastoma cell line", "type": "cell-based", "details": "Homo sapiens, read-out: CSC EC50", "procedure": "Cell Culture: Glioblastoma stem cell lines GBM0308, BT145, and BT112 were cultured in neurobasal (NBE medium) containing N-2 and B-27 supplements, EGF, bFGF, L-glutamine, and Penicillin-Streptomycin), as described previously.^19 Adherent GBM cells were cultured in serum-containing DMEM media (Invitrogen) supplemented with 10% fetal bovine serum (Corning Cellgro™). Cells were incubated at 37° C. and 5% CO2 to allow neurosphere formation. For seeding and subculturing, the neurospheres were gently trypsinized with 0.025% trypsin to form a single-cell suspension.\nDose-Response Testing in GBM Cells: Briefly, on day 1, cells were seeded in triplicate. For CSCs, 1500 cells/well were plated in a low attachment 96-well plate with NBE media and incubated for 3 days at 37° C. and 5% CO2 to allow the formation of neurospheres. For non-CSCs, 3000 cells/well were plated in a 96-well plate with DMEM media supplemented with 10% FBS. Similarly, the assay plates were also incubated for the same duration. Compound treatments started on day 4. […] After incubation, plates were read by Celigo imaging cytometer using an inbuilt Celigo application; Cell Viability (Dead+Total). For the viability measurement, the total number of neurospheres/cells and dead neurospheres/cells in each well were counted by the cytometer. […]"}, "GBM0308 cells (CSCs)": {"tested_on": "GBM0308 cells (CSCs)", "assay": "Annexin V/PI flow cytometry apoptosis assay", "type": "cell-based, human", "details": "1 μM, 12 h and 24 h", "procedure": "(§1) To gain additional mechanistic insights into GBM cell death induced by (−)-20, the inventors conducted several functional assays. The inventors first derived a single neurosphere from GBM0308 cells cultured in stem cell conditions, which was treated with either DMSO or (−)-20 at varying doses for three days followed by staining with PI and Hoechst dyes and subsequent imaging. […] To capture the kinetics of apoptotic events, the inventors employed caspase 3/7 staining of GBM0308 neurospheres treated with either DMSO or (−)-20 and subsequently evaluated at three timepoints over a 48-hour period. […] (FIG. 5B).\n(§2) Apoptosis Assays: For the Caspase 3/7 assay single neurospheres were generated as described above. On day four, neurospheres were treated with compound (−)-20. Apoptosis in treated tumorspheres was assessed using Nexcelom's ViaStain™ Live Caspase 3/7 Detection kit (Nexcelcom, CS1-V0002-1). […] Plates were imaged using the “neurosphere 1+Mask” application to measure fluorescent intensities of the caspase dye, as described previously.^70 Apoptosis was quantified using the FITC Annexin V apoptosis detection kit II (Invitrogen). […] At 12 h and 24 h after treatment, neurospheres were gently dissociated by using trypsin 0.025%, stained with PI and FITC and analyzed by flow cytometery using a Bio-Rad ZE5 Cell Analyzer."}, "GBM0308 neurospheres [1]": {"tested_on": "GBM0308 neurospheres", "assay": "Neurosphere formation assay (single neurosphere, PI/Hoechst)", "type": "cell-based", "details": "three days treatment", "procedure": "as §1\nNeurosphere Formation Assays: Single neurospheres were generated by seeding GBM0308 cells (400 cells per well) in a 384-well ultra-low attachment round bottom microplate (Nexcelom Bioscience, ULA-384 U). The plates were then centrifuged at 300×g for 10 minutes to cluster cells at the bottom of the wells, followed by incubation at 37° C. and 5% CO2 for 4 days to allow the formation of single neurospheres and treated with either DMSO or drugs at concentrations of 3.3, 1.11, 0.37, 0.12, 0.041, 0.013, 0.004 μM. On Day 7, neurospheres were stained with propidium iodide and Hoechst, as described above. The “neurosphere 1+Mask” application was used to measure the fluorescent intensities of PI, using Celigo cytometer as described previously.^70"}, "GBM0308 neurospheres [2]": {"tested_on": "GBM0308 neurospheres", "assay": "Caspase 3/7 staining of neurospheres", "type": "cell-based, human", "details": "1 μM, 24- and 48-hour timepoints", "procedure": "as §1, §2"}}, "data": [{"smiles": "COc1cc(OC)c2c(c1)O[C@@]1(c3ccc(Br)cc3)[C@H](c3ccccc3)[C@@H](C(=O)NS(=O)(=O)N(C)C)[C@@H](O)[C@@]21O", "note": "[(−)-20, (1R,2R,3S,3aR,8bS)-3a-(4-bromophenyl)-N—(N,N-dimethylsulfamoyl)-1,8b-dihydroxy-6,8-dimethoxy-3-phenyl-2,3,3a,8b-tetrahydro-1H-cyclopenta[b]benzofuran-2-carboxamide]", "values": [{"measurement": "expression of genes involved in stem cell maintenance and survival (NOTCH1, NOTCH2, NOTCH3, SALL3, SOX2)", "setting": "GBM0308 stem cells", "value": "downregulated"}, {"measurement": "EC50", "setting": "BT145 CSCs", "value": 93, "unit": "nM"}, {"measurement": "Annexin V/PI staining (apoptosis)", "setting": "GBM0308 cells (CSCs)", "value": "induced apoptosis"}, {"measurement": "concentration from which cytotoxic effects on CSC neurospheres are seen (PI staining)", "setting": "GBM0308 neurospheres [1]", "value": "≥ 120", "unit": "nM"}, {"measurement": "effect on neurosphere size, in words", "setting": "GBM0308 neurospheres [1]; varying doses", "value": "dose-dependent reduction in neurosphere size"}, {"measurement": "caspase 3/7 staining", "setting": "GBM0308 neurospheres [2]", "value": "positive staining"}]}]}
